We go through four molecules from PubChem BioAssay AID1259407 (Chemical Carcinogenesis Research Information System (CCRIS), 2018).

This data set concerns CCRIS mutagenicity, Ames/micronucleus/aberration tests. In words: CCRIS mutagenicity studies.
[1] abbreviates: Test System: AMES SALMONELLA TYPHIMURIUM, Strain/Indicator: TA104, Metabolic Activation: RAT LIVER S-9, AROCLOR 1254, Method: PREINCUBATION

Active and inactive are the calls of the source. How the calls were made is not given here.

On to `OC[C@H]1O[C@@H](n2cnc3c(NO)ncnc32)[C@H](O)[C@@H]1O`, for which the mutagenic call (Test System: AMES SALMONELLA TYPHIMURIUM, Strain/Indicator: TA98, Metabolic Activation: NONE, Method: STANDARD PLATE) is “active; positive”; the mutagenic call (Test System: AMES SALMONELLA TYPHIMURIUM, Strain/Indicator: TA100(TN5-1,8-DNP1011), Metabolic Activation: NONE, Method: STANDARD PLATE) is “active; positive”; the mutagenic call (Test System: AMES SALMONELLA TYPHIMURIUM, Strain/Indicator: TA100(TN5-1,8-DNP1012), Metabolic Activation: NONE, Method: STANDARD PLATE) is “active; positive”; the mutagenic call (Test System: AMES SALMONELLA TYPHIMURIUM, Strain/Indicator: TA100, Metabolic Activation: NONE, Method: STANDARD PLATE) was “active; positive”; the mutagenic call (Test System: AMES SALMONELLA TYPHIMURIUM, Strain/Indicator: TA102, Metabolic Activation: NONE, Method: STANDARD PLATE) is “inactive; negative”.

For `Cn1c(-c2ccccc2)c(N=Nc2scc[n+]2C)c2ccccc21`, the mutagenic call is, setting by setting: (Test System: AMES SALMONELLA TYPHIMURIUM, Strain/Indicator: TA1537, Metabolic Activation: HAMSTER, LIVER, S-9, AROCLOR 1254, Method: STANDARD PLATE) “active; positive”; (Test System: AMES SALMONELLA TYPHIMURIUM, Strain/Indicator: TA1537, Metabolic Activation: NONE, Method: STANDARD PLATE) “active; positive”; (Test System: AMES SALMONELLA TYPHIMURIUM, Strain/Indicator: TA1537, Metabolic Activation: RAT, LIVER, S-9, AROCLOR 1254, Method: STANDARD PLATE) “active; positive”; (Test System: Mouse lymphoma, Strain/Indicator: L5178Y (tk+/tk-), Metabolic Activation: None, Method: Suspension/plate) “active; inconclusive (previous evaluation positive)”; (Test System: Mouse lymphoma, Strain/Indicator: L5178Y (tk+/tk-), Metabolic Activation: Rat, Liver, S-9, Aroclor 1254, Method: Suspension/plate) “active; inconclusive (previous evaluation positive)”.

As to `CCC=O`, the mutagenic call by setting is: (Test System: AMES SALMONELLA TYPHIMURIUM, Strain/Indicator: TA98, Metabolic Activation: NONE, Method: PREINCUBATION) “inactive; negative”; (Test System: AMES SALMONELLA TYPHIMURIUM, Strain/Indicator: TA98, Metabolic Activation: RAT, LIVER, S-9, AROCLOR 1254, Method: PREINCUBATION) “inactive; negative”; (Test System: AMES SALMONELLA TYPHIMURIUM, Strain/Indicator: TA100, Metabolic Activation: NONE, Method: PREINCUBATION) “inactive; negative”; (Test System: AMES SALMONELLA TYPHIMURIUM, Strain/Indicator: TA100, Metabolic Activation: RAT LIVER S-9, AROCLOR 1254, Method: PREINCUBATION) “inactive; negative”; (Test System: AMES SALMONELLA TYPHIMURIUM, Strain/Indicator: TA100, Metabolic Activation: RAT, LIVER, S-9, AROCLOR 1254, Method: PREINCUBATION) “inactive; negative”; (Test System: AMES SALMONELLA TYPHIMURIUM, Strain/Indicator: TA102, Metabolic Activation: NONE, Method: PREINCUBATION) “inactive; negative”. The mutagenic call is, setting by setting: (Test System: AMES SALMONELLA TYPHIMURIUM, Strain/Indicator: TA102, Metabolic Activation: RAT LIVER S-9, AROCLOR 1254, Method: PREINCUBATION) “inactive; negative”; (Test System: AMES SALMONELLA TYPHIMURIUM, Strain/Indicator: TA102, Metabolic Activation: RAT, LIVER, S-9, AROCLOR 1254, Method: PREINCUBATION) “inactive; negative”; (Test System: AMES SALMONELLA TYPHIMURIUM, Strain/Indicator: TA104, Metabolic Activation: NONE, Method: PREINCUBATION) “inactive; negative”; under setting [1], “inactive; negative”; (Test System: CHINESE HAMSTER V-79, Strain/Indicator: V-79/6-THIOGUANINE (HGPRT), Metabolic Activation: NONE, Method: REPLATING) “active; positive”; (Test System: CHINESE HAMSTER V-79, Strain/Indicator: V-79/6-THIOGUANINE, Metabolic Activation: NONE) “inactive; negative”. The mutagenic call is, setting by setting: (Test System: CHINESE HAMSTER V-79, Strain/Indicator: V-79/OUABAIN (NA/K), Metabolic Activation: NONE, Method: REPLATING) “active; positive”; (Test System: UDS HUMAN HEPATOCYTES, Strain/Indicator: THY INCORP, Metabolic Activation: NONE, Method: AUTORADIOGRAPHY) “inactive; negative”; (Test System: UDS RAT HEPATOCYTES, Strain/Indicator: THY INCORP, Metabolic Activation: NONE, Method: AUTORADIOGRAPHY) “active; positive”.

As for `CC(C)(OO)c1ccccc1`, the mutagenic call is “active; positive” (Test System: AMES SALMONELLA TYPHIMURIUM, Strain/Indicator: TA97A, Metabolic Activation: RAT LIVER S-9, AROCLOR 1254, Method: PREINCUBATION); “active; positive” (Test System: AMES SALMONELLA TYPHIMURIUM, Strain/Indicator: TA98, Metabolic Activation: NONE, Method: FLUCTUATION (MICROTITER)); “inactive; negative” (Test System: AMES SALMONELLA TYPHIMURIUM, Strain/Indicator: TA98, Metabolic Activation: RAT LIVER S-9, AROCLOR 1254, Method: FLUCTUATION (MICROTITER)); “active; positive” under setting [1]; “active; positive” (Test System: AMES SALMONELLA TYPHIMURIUM, Strain/Indicator: TA1537, Metabolic Activation: NONE, Method: FLUCTUATION (MICROTITER)); “active; positive” (Test System: AMES SALMONELLA TYPHIMURIUM, Strain/Indicator: TA1537, Metabolic Activation: RAT LIVER S-9, AROCLOR 1254, Method: FLUCTUATION (MICROTITER). Further, the mutagenic call reads like this: (Test System: AMES SALMONELLA TYPHIMURIUM, Strain/Indicator: TA2638A, Metabolic Activation: NONE, Method: STANDARD PLATE) “active; positive”; (Test System: AMES SALMONELLA TYPHIMURIUM, Strain/Indicator: TA7001, Metabolic Activation: NONE, Method: FLUCTUATION (MICROTITER)) “inactive; negative”; (Test System: AMES SALMONELLA TYPHIMURIUM, Strain/Indicator: TA7001, Metabolic Activation: RAT LIVER S-9, AROCLOR 1254, Method: FLUCTUATION (MICROTITER)) “active; positive”; (Test System: AMES SALMONELLA TYPHIMURIUM, Strain/Indicator: TA7002, Metabolic Activation: NONE, Method: FLUCTUATION (MICROTITER)) “active; positive”; (Test System: AMES SALMONELLA TYPHIMURIUM, Strain/Indicator: TA7002, Metabolic Activation: RAT LIVER S-9, AROCLOR 1254, Method: FLUCTUATION (MICROTITER)) “inactive; negative”; (Test System: AMES SALMONELLA TYPHIMURIUM, Strain/Indicator: TA7003, Metabolic Activation: NONE, Method: FLUCTUATION (MICROTITER)) “inactive; negative”. Besides, the mutagenic call is, setting by setting: (Test System: AMES SALMONELLA TYPHIMURIUM, Strain/Indicator: TA7003, Metabolic Activation: RAT LIVER S-9, AROCLOR 1254, Method: FLUCTUATION (MICROTITER)) “inactive; negative”; (Test System: AMES SALMONELLA TYPHIMURIUM, Strain/Indicator: TA7004, Metabolic Activation: NONE, Method: FLUCTUATION (MICROTITER)) “active; positive”; (Test System: AMES SALMONELLA TYPHIMURIUM, Strain/Indicator: TA7004, Metabolic Activation: RAT LIVER S-9, AROCLOR 1254, Method: FLUCTUATION (MICROTITER)) “active; positive”; (Test System: AMES SALMONELLA TYPHIMURIUM, Strain/Indicator: TA7005, Metabolic Activation: NONE, Method: FLUCTUATION (MICROTITER)) “active; positive”; (Test System: AMES SALMONELLA TYPHIMURIUM, Strain/Indicator: TA7005, Metabolic Activation: RAT LIVER S-9, AROCLOR 1254, Method: FLUCTUATION (MICROTITER)) “active; positive”; (Test System: AMES SALMONELLA TYPHIMURIUM, Strain/Indicator: TA7006, Metabolic Activation: NONE, Method: FLUCTUATION (MICROTITER)) “active; positive”. The mutagenic call runs as follows: (Test System: AMES SALMONELLA TYPHIMURIUM, Strain/Indicator: TA7006, Metabolic Activation: RAT LIVER S-9, AROCLOR 1254, Method: FLUCTUATION (MICROTITER)) “active; positive”; (Test System: E. COLI, Strain/Indicator: WP2 (PKM101), Metabolic Activation: NONE, Method: STANDARD PLATE) “active; positive”; (Test System: E. COLI, Strain/Indicator: WP2 UVRA (PKM101), Metabolic Activation: NONE, Method: STANDARD PLATE) “active; positive”.
